Ki and melting point data for 21 compounds are collected here from US6455700B1, “Process for preparing guanidine and amidine derivatives” (Boehringer Ingelheim Pharma KG., priority 1998, dated 2002).

Data set [1] concerns the target T1, NK1 receptor (substance P receptor) (Homo sapiens, UniProt P25103).
T1 construct: expressed in transfected cells; host or cells: human lymphoblastoma cells (IM-9)
Kind of data set: NK1 receptor affinity, displacement of 125I-labelled substance P on IM-9 cells. It is filed as binding. The following applies: human lymphoblastoma cells (IM-9) with cloned NK1 receptors. How it is done:
Results of investigations into the compound according to the invention: The receptor affinity for the NK1 receptor (substance P receptor) is determined on human lymphoblastoma cells (IM-9) with cloned NK1 receptors, by measuring the displacement of ^125I-labelled substance P. The Ki values thus obtained show the efficacy of the compounds.
A general note: Displacement assays read how much labelled ligand stays bound in the presence of the test substance.

Structures can show the parent of a compound that is named as a salt.

T1 sequence (P25103 whole entry): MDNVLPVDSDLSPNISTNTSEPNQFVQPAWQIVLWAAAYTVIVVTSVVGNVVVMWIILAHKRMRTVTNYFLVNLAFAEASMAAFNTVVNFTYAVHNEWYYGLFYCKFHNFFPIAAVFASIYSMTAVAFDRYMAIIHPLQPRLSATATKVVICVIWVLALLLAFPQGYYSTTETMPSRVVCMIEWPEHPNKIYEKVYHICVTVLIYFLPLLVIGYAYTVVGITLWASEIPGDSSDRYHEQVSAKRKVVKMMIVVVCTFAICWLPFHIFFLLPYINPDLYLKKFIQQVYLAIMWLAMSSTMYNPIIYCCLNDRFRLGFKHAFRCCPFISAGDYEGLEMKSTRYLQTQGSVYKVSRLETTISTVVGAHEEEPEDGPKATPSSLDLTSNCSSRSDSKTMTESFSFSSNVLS

In the case of `CN(CCc1cc(C(F)(F)F)cc(C(F)(F)F)c1)C(=O)C(c1ccccc1)N1CCN(/C(=N\C2CCCCC2)NC2CCCCC2)CC1` (centres unmarked) [Example 7], the melting point (as a rule, the temperature, or range, at which the solid turns liquid) was 182 to 188 °C (dec.). The affinity in data set [1] corresponds to a Ki of 1450 pM. Turning to `CCN/C(=N/C(C)(C)C)N1CCN(C(C(=O)N(C)CCc2cc(C(F)(F)F)cc(C(F)(F)F)c2)c2ccccc2)CC1` (centres unmarked) [Example 5], the melting point is 174 to 184 °C (dec.). Besides, the inhibition constant (Ki) (commonly a dissociation constant, usually derived from enzyme kinetics or from competition with a known ligand) in data set [1] was 6280 pM. In data set [1], `Cc1ccc(/N=C(\Nc2ccc(C)cc2)N2CCN(C(C(=O)N(C)CCc3cc(C(F)(F)F)cc(C(F)(F)F)c3)c3ccccc3)CC2)cc1` (centres unmarked) [Example 28] showed an inhibition constant Ki of 4160 pM. `CN(CCc1cc(C(F)(F)F)cc(C(F)(F)F)c1)C(=O)[C@H](c1ccccc1)N1CCN(C2=NCCN2C)CC1` [Example 8]: the affinity in data set [1], expressed as Ki, was 190 pM. Take `CN(CCc1cc(C(F)(F)F)cc(C(F)(F)F)c1)C(=O)C(c1ccccc1)N1CCN(C(=N)Nc2ccccc2)CC1` (centres unmarked) [Example 12]: the melting point was 240 to 245 °C (dec.). In data set [1], this compound gave a Ki of 320 pM. Regarding `CN(CCc1cc(C(F)(F)F)cc(C(F)(F)F)c1)C(=O)[C@H](c1ccccc1)N1CCN(/C(=N/C(=O)c2ccccc2)Nc2ccccc2)CC1` [Example 29], affinity in data set [1] was put at a Ki of 870 pM.

For `CN(CCc1cc(C(F)(F)F)cc(C(F)(F)F)c1)C(=O)C(c1ccccc1)N1CCN(/C(N)=N/Cc2ccccc2)CC1` (centres unmarked) [Example 34], the affinity in data set [1] corresponds to a Ki of 370 pM. For the compound `C/N=C(\NC)N1CCN(C(C(=O)N(C)CCc2cc(C(F)(F)F)cc(C(F)(F)F)c2)c2ccccc2)CC1` (centres unmarked) [Example 9], the melting point was in the range of 126 to 140 °C. The compound also had a Ki in data set [1] of 140 pM. The compound `CN(CCc1cc(C(F)(F)F)cc(C(F)(F)F)c1)C(=O)C(c1ccccc1)N1CCN(C(=N)N)CC1` (racemic) [Example 1, (R,S)-1-Amidino-4-[2-phenylacetic acid-N-methyl-N-(3,5-bis-trifluoromethyl-phenyl-ethyl)-amide]-piperazine, dihydrochloride] returned a Ki in data set [1] of 450 pM. In data set [1], `CC(C)NC(=N)N1CCN(C(C(=O)N(C)CCc2cc(C(F)(F)F)cc(C(F)(F)F)c2)c2ccccc2)CC1` (centres unmarked) [Example 32] returned a Ki of 200 pM.

For the compound `CN(CCc1cc(C(F)(F)F)cc(C(F)(F)F)c1)C(=O)C(c1ccccc1)N1CCN(/C(=N\C2CCCCC2)N(C)C2CCCCC2)CC1` (centres unmarked) [Example 6], the Ki in data set [1] was found to be 880 pM.

In data set [1], `CC(C)N/C(=N\C(=O)c1ccccc1)N1CCN(C(C(=O)N(C)CCc2cc(C(F)(F)F)cc(C(F)(F)F)c2)c2ccccc2)CC1` (centres unmarked) [Example 31] displayed a Ki of 8960 pM.

Compound `CN(C)C(=N)N1CCN(C(C(=O)N(C)CCc2cc(C(F)(F)F)cc(C(F)(F)F)c2)c2ccccc2)CC1` (centres unmarked) [Example 10] had an inhibition constant (Ki) in data set [1] of 120 pM. Turning to `CC(C)/N=C(/NC(C)C)N1CCN(C(C(=O)N(C)CCc2cc(C(F)(F)F)cc(C(F)(F)F)c2)c2ccccc2)CC1` (racemic) [Example 4], the melting point was 176 to 186 °C (dec.). In data set [1], this compound yielded a Ki of 530 pM. `CN(CCc1cc(C(F)(F)F)cc(C(F)(F)F)c1)C(=O)C(c1ccccc1)N1CCN(/C(=N/C(=O)c2ccccc2)NCc2ccccc2)CC1` (centres unmarked) [Example 33] registered a Ki in data set [1] of 13200 pM. `CN(CCc1cc(C(F)(F)F)cc(C(F)(F)F)c1)C(=O)[C@H](c1ccccc1)N1CCN(/C(=N/C(=O)c2ccccc2)N(C)C)CC1.Cl` [Example 27] gave a melting point of 124 to 128 °C. In data set [1], this compound displayed an inhibition constant Ki of 1110 pM. In turn, `CN(CC(c1ccc(Cl)c(Cl)c1)N1CCN(C(=N)N)CC1)C(=O)Cc1cc(C(F)(F)F)cc(C(F)(F)F)c1` (centres unmarked) [Example 35] had an inhibition constant (Ki) in data set [1] of 780 pM. Compound `CNC(=N)N1CCN(C(C(=O)N(C)CCc2cc(C(F)(F)F)cc(C(F)(F)F)c2)c2ccccc2)CC1` (centres unmarked) [Example 3] had a melting point of 69 to 79 °C. In data set [1], this compound came in with a Ki of 200 pM.

Consider `CN(CCc1cc(C(F)(F)F)cc(C(F)(F)F)c1)C(=O)C(c1ccccc1)N1CCN(C(=N)N2CCOCC2)CC1` (centres unmarked) [Example 30], for which the Ki in data set [1] amounted to 170 pM.

Consider `CN(CCc1cc(C(F)(F)F)cc(C(F)(F)F)c1)C(=O)C(c1ccccc1)N1CCN(C2=NCCN2)CC1` (centres unmarked) [Example 2], for which the melting point lay in the range of 163 to 173 °C. Further, the Ki in data set [1] amounted to 300 pM.

`CN(CCc1cc(C(F)(F)F)cc(C(F)(F)F)c1)C(=O)C(c1ccccc1)N1CCN(C(=N)N)CC1` (racemic) (as salt: hydrochloride) [Example 1, (R,S)-1-Amidino-4-[2-phenylacetic acid-N-methyl-N-(3,5-bis-trifluoromethyl-phenyl-ethyl)-amide]-piperazine, dihydrochloride] displayed a melting point of 128 to 138 °C.
